Molecules are shown by their SMILES. Several values for one entry are separate records, joined by “and”; a condition that tells them apart may be missing. Equal entries are not always repeated.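 Step 1: Grow cells in 96-well plates. Step 2: Expose to compound for 48 hours at 5 concentrations. Step 3: Interpolate endpoints linearly; if unreached, use highest concentration. Abbreviation: GI50, concentration required for 50% inhibition of growth. The concentration for full growth arrest is given as TGI.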

Test systems include ACHN renal; CAKI-1 renal; HCT-15 colon; HOP-92 NSCLC; M14 melanoma; MALME-3M melanoma; NCI-H226 lung; SNB-19 CNS; OVCAR-3 ovarian; SF-295 CNS.
Common to all, as to experiment: inhibition of tumour cell growth, NCI panel, 48 h

On to `O=C(/C=C(\[O-])c1ccccc1)CCCCCCC(=O)/C=C(\[O-])c1ccccc1.O=C(/C=C(\[O-])c1ccccc1)CCCCCCC(=O)/C=C(\[O-])c1ccccc1.O=C(/C=C(\[O-])c1ccccc1)CCCCCCC(=O)/C=C(\[O-])c1ccccc1.[La+3].[La+3]`, for which the GI50 in the assay with ACHN renal, with CAKI-1 renal, with HCT-15 colon, in the assay with HOP-92 NSCLC, with M14 melanoma and in the assay with MALME-3M melanoma was more than 50 µM each time. The GI50 in the assay on NCI-H226 lung and with SNB-19 CNS was more than 50 µM each time. For the same molecule, the TGI in the assay on ACHN renal, in the assay with CAKI-1 renal, in the assay on HCT-15 colon, with HOP-92 NSCLC, in the assay with M14 melanoma and in the assay with MALME-3M melanoma was more than 50 µM each time. In addition, the TGI in the assay with NCI-H226 lung and in the assay with SNB-19 CNS was more than 50 µM each time.

`O=C(O)CCCc1ccc(N(CCCl)CCCl)cc1`: the GI50 is 4.21 µM in the assay on ACHN renal; 5.86 µM with CAKI-1 renal; 29.6 µM and 117 µM with HCT-15 colon; 25.2 µM and 99.1 µM in the assay on HOP-92 NSCLC; 14.9 µM and 91.3 µM in the assay with M14 melanoma; 10.3 µM and 97.8 µM in the assay with MALME-3M melanoma. The GI50 in the assay with NCI-H226 lung was 16.1 µM and 120 µM; with OVCAR-3 ovarian it was 18.1 µM and 133 µM; with SF-295 CNS, 11.7 µM and 64.6 µM. Further, the TGI with ACHN renal was 30.3 µM and 180 µM; with CAKI-1 renal, 28.1 µM and 146 µM and 247 µM; with HCT-15 colon, > 76.3 µM and 307 µM and 239 µM; with HOP-92 NSCLC it was 46.6 µM and 199 µM and 175 µM; in the assay on MALME-3M melanoma, 26.3 µM and 188 µM and 141 µM; with NCI-H226 lung, 42.4 µM and 276 µM and 362 µM. The TGI in the assay with OVCAR-3 ovarian is 56.7 µM and 322 µM and 209 µM.

Take `CC1=C[C@@H]2Cc3occc3C(C)(C)[C@@H]2CC1`: the TGI turned out to be 29.4 µM in the assay with ACHN renal; 52.2 µM in the assay with CAKI-1 renal; 38.9 µM in the assay with HOP-92 NSCLC; 47.1 µM with M14 melanoma; 44.2 µM with MALME-3M melanoma; 32.8 µM with NCI-H226 lung. Besides, the values for the TGI in the assay on OVCAR-3 ovarian, with SF-295 CNS and in the assay with SNB-19 CNS were 31.5 µM, 34.1 µM and more than 10 µM, respectively.

As to `COc1ccc(CN2CCCC(C(=O)c3ccc(C(F)(F)F)cc3)C2)c(O)c1` (centres undefined), the GI50 with ACHN renal was 33.6 µM; in the assay on CAKI-1 renal, 22.1 µM; in the assay on HCT-15 colon it was 14.6 µM; in the assay with HOP-92 NSCLC it was 11.1 µM; in the assay on MALME-3M melanoma, 18.2 µM; with NCI-H226 lung it was 35.5 µM. In addition, the GI50 was 36.2 µM in the assay with OVCAR-3 ovarian, 16.8 µM in the assay with SF-295 CNS and 26.3 µM with SNB-19 CNS. The TGI is more than 100 µM in the assay on ACHN renal; more than 100 µM with CAKI-1 renal; 36 µM with HCT-15 colon; 58 µM with HOP-92 NSCLC; 35.5 µM in the assay with MALME-3M melanoma; more than 100 µM in the assay with NCI-H226 lung. The values for the TGI with OVCAR-3 ovarian, with SF-295 CNS and in the assay on SNB-19 CNS were more than 100 µM, 45.9 µM and more than 100 µM, respectively.

Consider `CCCCn1/c(=N/C(=S)N(C)C)ss/c1=N\C(=S)N(C)C`, for which the TGI in the assay with ACHN renal, in the assay with CAKI-1 renal, in the assay on HCT-15 colon, with HOP-92 NSCLC, in the assay on M14 melanoma and with MALME-3M melanoma was more than 100 µM throughout. The TGI with NCI-H226 lung, in the assay on SF-295 CNS and in the assay on SNB-19 CNS was more than 100 µM each time.

For the molecule `O=C(Cc1ccc(/C=C/C(=O)c2ncc[nH]2)cc1)Nc1ccc(Cl)cc1`, the GI50 with ACHN renal is 4.04 µM; in the assay with CAKI-1 renal it was 4.88 µM; in the assay on HCT-15 colon, 0.879 µM; with HOP-92 NSCLC, 5.74 µM; in the assay on MALME-3M melanoma, 6.24 µM; in the assay with NCI-H226 lung, 7.5 µM. Besides, the GI50 is 1.14 µM in the assay on OVCAR-3 ovarian, 3.33 µM with SF-295 CNS and 2.32 µM in the assay with SNB-19 CNS. Besides, the TGI in the assay with ACHN renal was 7.66 µM; with CAKI-1 renal it was 15.4 µM; with HCT-15 colon it was 5.99 µM; with HOP-92 NSCLC, 20.9 µM; with MALME-3M melanoma, 18.5 µM; in the assay with NCI-H226 lung it was more than 25 µM. Also, the TGI in the assay on OVCAR-3 ovarian was 4.29 µM; with SF-295 CNS, 9.32 µM; with SNB-19 CNS, 6.73 µM.

For `COC(=O)C(CC(=O)c1cc2c(cc1I)OCO2)Cc1cc(OC)c(OC)c(OC)c1I` (centres undefined), the TGI with ACHN renal, with CAKI-1 renal, in the assay on HCT-15 colon, in the assay on HOP-92 NSCLC, in the assay on MALME-3M melanoma and in the assay on NCI-H226 lung was more than 100 µM throughout. Further, the TGI with OVCAR-3 ovarian, in the assay on SF-295 CNS and in the assay with SNB-19 CNS was more than 100 µM throughout.

For `C/C(=N\NC(N)=S)c1ccc(C)cc1C`, the TGI with ACHN renal, in the assay on CAKI-1 renal, in the assay on HCT-15 colon, in the assay with HOP-92 NSCLC, in the assay on M14 melanoma and in the assay with MALME-3M melanoma was more than 100 µM in each case. Moreover, the TGI in the assay on NCI-H226 lung, with OVCAR-3 ovarian and in the assay with SF-295 CNS was more than 100 µM throughout.

Values taken from PubChem BioAssay (NCI).
